According to patent US10865203B2, “Ligands selective to alpha 6 subunit-containing GABAA receptors and their methods of use” (UWM Research Foundation, Inc., priority 2015, dated 2020):
“Also recorded” adds a separate entry of the source.

Assays:
[1] = system: mice, methamphetamine-induced hyperlocomotion; assay: Locomotor activity, methamphetamine-induced hyperlocomotion; assay type: in vivo, mouse
Experimental: The locomotor activity of the mouse was measured by its interruptions of infra-red photobeans in a locomotor cage (42 cm×42 cm×36 cm) in the photobeam activity system (San Diego Instruments, San Diego, Calif.). After acclimation, the mouse was treated with ci extract or vehicle for 15 min, followed by ma (2 mg/kg). Then, the mouse was gently placed in the locomotor cage and the horizontal and vertical interruptions were counted every 5 min for 60 min. Total locomotor activity was the sum of interruptions within 60 min.
Mice were anaesthetized with sodium pentobarbital (60 mg/kg i.p.) And placed in a stereotaxic frame keeping the bregma-lambda axis horizontal. After shaving the hair and exposing the skull surface, the mouse was implanted with two 24-gauge stainless-steel guide cannulas, respectively, directing towards the right and left lateral cerebella (−6.4 mm caudal, ±1.5 mm lateral, −1.0 mm ventral from bregma) according to the stereotaxic coordinate of the mouse (Paxions 2001). The cannulas were fixed on the top of the skull by stainless steel screws and dental cement. The animal was allowed to fully recover after surgery for at least one week before the behavioral test was conducted.
On the day for behavioral tests, a 30-gauge injection cannula connected to a 1 μL hamilton syringe was inserted into the guide cannula for drug injection. The drug solution of 0.5 μL in each side was slowly infused with a microinfusion pump (kds311, kd scientific inc.) For 30 s with a further “hold” time for 60 s. The microinjection site was confirmed by the positive staining of trypan blue, which was injected through the cannula after behavioral tests. Data from mice with offsite injections were discarded.

[2] = system: c-Fos-ir neurons in the TNC of Wistar rats; assay: Migraine model: capsaicin (i.c.)-induced neuronal activation in the TCC; assay type: in vivo, rat; conditions: i.p., capsaicin 10 nmol i.c., 2 hours after
Experimental: Intra-cisteral instillation of capsaicin. Under anesthesia with chloral hydrate (400 and 100 mg/kg, i.p., respectively, for inducing and maintaining), the rat received a midline skin incision from the occipital protuberance to the upper cervical area. After catheterization with a catheter (PE-10, SIMS Portex Ltd, Hythe, UK) inserted 3 mm deep into the cisterna magna, the rat was placed in a prone position for 6 h. Then, the capsaicin solution (10 nmol, 100 μL) was instilled through the catheter into the cisterna magna over 1 min. The rat was then placed in a reverse Trendelenburg position (−30 degrees) for 30 min in order to facilitate capsaicin distribution within the subarachnoid space, followed by the prone position for another 90 min. […]
Measurement of the total number of C-fos-ir neurons in the TCC. C-Fos-ir neurons, i.e., neurons with stained nuclei, were counted under a microscope (Olympus BX51, Essex, UK) by an observer blinded to the treatment group. […] The total number of c-Fos-ir TCC neurons were estimated based on the formular derived in our previous study (Fan et al., 2012): 16(N1+N2)/2+53(N2+N3)/2, where N1, N2, and N3 were the c-Fos-ir neuronal numbers measured at […] from the obex, respectively.

[3] = system: mice, motor coordination; assay: Rotarod test; assay type: in vivo, mouse; conditions: 3 mg/kg, 15 min after treatment
Experimental: The motor coordinating activity of the mouse was measured by its performance on a rotarod in the sdi rotor-rodtm system (San Diego Instruments, San Diego, Calif.). The mouse was trained four times a day for 3 days until it could stay on the rotating drum at a rotating speed of 24 rpm for at least 120 sec. Then, the mouse was subjecting to the rotarod test at the rotating speed accelerating gradually from 0 to 30 rpm, and the latency to fall from the rotating drum was recorded. The cut-off time for the latency to fall was 300 sec. Animals were treated with the tested drug or vehicle for 15 min before receiving the test.

[4] = system: male Wistar rats; assay: Rotarod performance, pilot experiment; assay type: in vivo, rat; conditions: acute, dose range 10-55 mg/kg, 20 min after administration
[5] = Rapid equilibrium dialysis assay, free fraction; assay type: in vitro ADME; conditions: rat, read-out: free fraction in rat blood
Source text: Five pharmacokinetic studies have been performed; four in male Wistar rats and one in male Swiss mice.

| SMILES | effect of intra-cerebellum furosemide on the rescue of hyperlocomotion ([1]; furosemide 10 nmol) | methamphetamine-induced hyperlocomotion ([1]; mice, 3 mg/kg i.p., METH 2 mg/kg i.p., 60 min) | spontaneous motor activity ([1]; mice, 3 mg/kg i.p., saline instead of METH) | number of c-Fos-ir neurons in the TNC induced by i.c. capsaicin [2] | motor coordination in the rotarod test [3] | rotarod performance [4] | fraction unbound [5] |
| --- | --- | --- | --- | --- | --- | --- | --- |
| COc1ccc(-n2nc3c4ccc(OC)cc4[nH]cc-3c2=O)cc1 [Compound 6, 7-Methoxy-2-(4-methoxyphenyl)-2,5-dihydro-3H-pyrazolo[4,3-c]quinolin-3-one] | significantly antagonized | significantly rescued | did not affect | significantly decreased; also recorded: reduces | did not affect | – | – |
| [2H]C([2H])([2H])Oc1ccc(-n2nc3c4ccc(OC)cc4[nH]cc-3c2=O)cc1 [DK-I-56-1, 7-Methoxy-2-(4-methoxy-d3-phenyl)-2,5-dihydro-3H-pyrazolo[4,3-c]quinolin-3-one] | – | – | – | – | – | did not impair | < 0.005 |
